Experiment [1] has as its target human KHK-A (Homo sapiens (Human), UniProt P50053). Kind of experiment: KHK Biochemical Assay (IC50), ADP-Glo, KHK-A. To be noted: average of at least two separate assays. Put shortly:
(§1)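 His-tagged enzyme expressed in BL21 (DE3), Ni-NTA purified. Compounds, serially diluted 1:3 in DMSO, pre-incubated 30 min with enzyme in 50 mM Hepes pH 7.4, 140 mM KCl, 5 mM MgCl2, 0.01% Triton-X, then ATP and fructose added; 4 h at room temperature. ADP formation read by ADP-Glo luminescence.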

The target of experiment [2] is human KHK-C (Homo sapiens (Human), UniProt P50053). Kind of experiment: KHK Biochemical Assay (IC50), ADP-Glo, KHK-C. To be noted: average of at least two separate assays. The essentials:
as §1
On the technique in general: In ADP-Glo the light output rises with the ADP produced.

Experiment [3] addresses KHK-C expressed in NRK-52E cells (Homo sapiens (Human), UniProt P50053). Kind of experiment: KHK-C Cell-based Assay (EC50), NRK CTG, fructose-mediated ATP-depletion.

Like-named read-outs stand apart in the source and are kept apart here.

Sequence of human KHK-C (P50053 whole entry): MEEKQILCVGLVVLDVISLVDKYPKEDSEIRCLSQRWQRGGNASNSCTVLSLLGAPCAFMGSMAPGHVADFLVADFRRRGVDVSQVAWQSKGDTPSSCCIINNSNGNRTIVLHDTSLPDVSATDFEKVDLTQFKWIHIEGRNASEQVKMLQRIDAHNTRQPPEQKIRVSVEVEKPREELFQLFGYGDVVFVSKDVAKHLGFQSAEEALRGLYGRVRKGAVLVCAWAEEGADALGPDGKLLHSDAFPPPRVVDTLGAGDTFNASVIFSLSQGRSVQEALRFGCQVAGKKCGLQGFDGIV
Sequence of KHK-C expressed in NRK-52E cells (P50053 whole entry): as above
Sequence of human KHK-A (P50053 other isoform, or with tags, fused parts or gaps): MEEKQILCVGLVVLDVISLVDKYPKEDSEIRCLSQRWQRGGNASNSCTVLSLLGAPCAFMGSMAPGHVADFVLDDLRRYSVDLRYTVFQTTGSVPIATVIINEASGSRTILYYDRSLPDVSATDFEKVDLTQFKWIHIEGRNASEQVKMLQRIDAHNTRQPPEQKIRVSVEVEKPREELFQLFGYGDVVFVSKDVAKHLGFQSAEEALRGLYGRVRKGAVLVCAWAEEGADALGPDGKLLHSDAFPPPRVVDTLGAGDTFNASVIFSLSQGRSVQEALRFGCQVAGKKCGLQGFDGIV

One may read the IC50 as the concentration needed to halve the response being measured. Read a low IC50 as inhibition by little substance. The term EC50 denotes the concentration needed to bring the measured effect to its halfway point. With `CC(=O)N1C[C@H](C(=O)O)[C@@H](c2cccc(-c3nc(N4CC[C@@H]4C)nc4c3CCC4)c2)C1` (mixture of isomers) [Example 145, (3R,4S)-1-acetyl-4-(3-(2-((S)-2-methylazetidin-1-yl)-6,7-dihydro-5H-cyclopenta[d]pyrimidin-4-yl)phenyl)pyrrolidine-3-carboxylic acid], the IC50 in experiment [1] (ADP-Glo) was 0.0837 µM; in experiment [2] (ADP-Glo), 0.125 µM. Besides, in experiment [3], the EC50 was over 5 µM.

As for `C[C@H]1CCN1c1nc2c(c(-c3ccc4c(c3)[C@]3(C[C@H]3C#N)C(=O)N4)n1)CCC2` (mixture of isomers) [Example 410, rac-(1R,2R)-5′-(2-((S)-2-methylazetidin-1-yl)-6,7-dihydro-5H-cyclopenta[d]pyrimidin-4-yl)-2′-oxospiro[cyclopropane-1,3′-indoline]-2-carbonitrile], the values for the concentration for half-maximal inhibition (IC50) in experiment [1] and in experiment [2] were 0.0376 µM and 0.0408 µM, respectively. Besides, the EC50 in experiment [3] is 0.0475 µM.

Consider `C[C@H]1CCN1c1nc2c(c(-c3ccc4c(c3)[C@]3(C[C@@H]3C#N)C(=O)N4)n1)CCC2` (mixture of isomers) [Example 411, rac-(1R,2S)-5′-(2-((S)-2-methylazetidin-1-yl)-6,7-dihydro-5H-cyclopenta[d]pyrimidin-4-yl)-2′-oxospiro[cyclopropane-1,3′-indoline]-2-carbonitrile], for which the values for the IC50 in experiment [1] and in experiment [2] were 0.0663 µM and 0.117 µM, respectively. The compound also came in with an EC50 in experiment [3] of 0.473 µM.

For the compound `C[C@H]1CCN1c1nc2c(c(-c3ccc4c(c3)[C@]3(C[C@H]3C(N)=O)C(=O)N4)n1)CCC2` (mixture of isomers) [Example 412, rac-(1R,2R)-5′-(2-((S)-2-methylazetidin-1-yl)-6,7-dihydro-5H-cyclopenta[d]pyrimidin-4-yl)-2′-oxospiro[cyclopropane-1,3′-indoline]-2-carboxamide], the IC50 stood at 0.0573 µM in experiment [1] and 0.0292 µM in experiment [2]. Further, in experiment [3], it took 0.406 µM to reach a half-maximal effect (EC50).

Consider `C[C@H]1CCN1c1nc2c(c(-c3ccc4c(c3)[C@]3(C[C@@H]3C(N)=O)C(=O)N4)n1)CCC2` (mixture of isomers) [Example 413, rac-(1R,2S)-5′-(2-((S)-2-methylazetidin-1-yl)-6,7-dihydro-5H-cyclopenta[d]pyrimidin-4-yl)-2′-oxospiro[cyclopropane-1,3′-indoline]-2-carboxamide], for which the IC50 was found to be 0.0654 µM in experiment [1] and 0.0744 µM in experiment [2]. Besides, the EC50 in experiment [3] was 0.75 µM.

As to `COC(=O)[C@@H]1C[C@@]12C(=O)Nc1ccc(-c3nc(N4CC[C@@H]4C)nc4c3CCC4)cc12` (racemic) [Example 406, rac-methyl (1R,2R)-5′-(2-((S)-2-methylazetidin-1-yl)-6,7-dihydro-5H-cyclopenta[d]pyrimidin-4-yl)-2′-oxospiro[cyclopropane-1,3′-indoline]-2-carboxylate], the IC50 is 0.841 µM in experiment [1] and 1.04 µM in experiment [2]. This compound also had a concentration giving a half-maximal response (EC50) in experiment [3] of 0.397 µM.

On to `C[C@H]1CCN1c1nc2c(c(-c3ccc4oc(N)nc4c3)n1)CCC2` [Example 736, (S)-5-(2-(2-methylazetidin-1-yl)-6,7-dihydro-5H-cyclopenta[d]pyrimidin-4-yl)benzo[d]oxazol-2-amine], for which the midpoint of inhibition in experiment [2], the IC50, lay at 0.021 µM. This compound registered a half-maximal effective concentration (EC50) in experiment [3] of 0.0349 µM.

In turn, `C[C@H]1[C@H](O)CN1c1nc(-c2ccc(C(=O)NCC#N)cc2)c2c(n1)C(F)(F)CC2` [Example 737, N-(cyanomethyl)-4-(7,7-difluoro-2-((2S,3R)-3-hydroxy-2-methylazetidin-1-yl)-6,7-dihydro-5H-cyclopenta[d]pyrimidin-4-yl)benzamide] came in with an IC50 in experiment [2] of 0.0097 µM. Besides, the response in experiment [3] was half-maximal at 0.242 µM (EC50).

`C[C@H]1[C@H](O)CN1c1nc2c(c(-c3cc4c(c(S(N)(=O)=O)c3)OCC4)n1)CCC2` [Example 739, 5-(2-((2S,3R)-3-hydroxy-2-methylazetidin-1-yl)-6,7-dihydro-5H-cyclopenta[d]pyrimidin-4-yl)-2,3-dihydrobenzofuran-7-sulfonamide] had a concentration for half-maximal inhibition (IC50) in experiment [2] of 0.0384 µM. In addition, the 50% effective concentration (EC50) in experiment [3] was determined as 0.215 µM.

`C[C@@H](NS(C)(=O)=O)c1ccc(-c2nc(N3C[C@@H](O)[C@@H]3C)nc3c2CCC3(F)F)cc1` [Example 740, N-[(1R)-1-[4-[7,7-difluoro-2-[(2S,3R)-3-hydroxy-2-methyl-azetidin-1-yl]-5,6-dihydrocyclopenta[d]pyrimidin-4-yl]phenyl]ethyl]methanesulfonamide] registered an IC50 in experiment [2] of 0.0403 µM. The same compound had an EC50 in experiment [3] of 0.323 µM.

In experiment [2], `C[C@@H](NS(C)(=O)=O)c1cccc(-c2nc(N3C[C@@H](O)[C@@H]3C)nc3c2CCC3(F)F)c1` [Example 741, N-[(1R)-1-[3-[7,7-difluoro-2-[(2S,3R)-3-hydroxy-2-methyl-azetidin-1-yl]-5,6-dihydrocyclopenta[d]pyrimidin-4-yl]phenyl]ethyl]methanesulfonamide] returned an IC50 of 0.0249 µM. The EC50 in experiment [3] was 0.224 µM.

Compound `C[C@H]1CCN1c1nc(-c2cc3c(c(S(N)(=O)=O)c2)OCC3)c2c(n1)C(F)(F)CC2` [Example 742, 5-[7,7-difluoro-2-[(2S)-2-methylazetidin-1-yl]-5,6-dihydrocyclopenta[d]pyrimidin-4-yl]-2,3-dihydrobenzofuran-7-sulfonamide] showed an IC50 in experiment [2] of 0.0013 µM. In experiment [3], this compound returned an EC50 of 0.0041 µM.

`C[C@H]1CCN1c1nc2c(c(-c3ccc(C4(NS(C)(=O)=O)CCC4)cc3)n1)CCC2` [Example 743, N-[1-[4-[2-[(2S)-2-methylazetidin-1-yl]-6,7-dihydro-5H-cyclopenta[d]pyrimidin-4-yl]phenyl]cyclobutyl]methanesulfonamide] returned an IC50 in experiment [2] of 1.02 µM. In experiment [3], a half-maximal response (EC50) required 1.68 µM.

`C[C@H](NS(C)(=O)=O)c1ccc(-c2nc(N3C[C@@H](O)[C@@H]3C)nc3c2CCC3(F)F)cc1` [Example 744, N-[(1S)-1-[4-[7,7-difluoro-2-[(2S,3R)-3-hydroxy-2-methyl-azetidin-1-yl]-5,6-dihydrocyclopenta[d]pyrimidin-4-yl]phenyl]ethyl]methanesulfonamide] returned an IC50 in experiment [2] of 0.0172 µM. For the same compound, in experiment [3], it took 0.142 µM to reach a half-maximal effect (EC50).

In experiment [2], `C[C@H](NS(C)(=O)=O)c1cccc(-c2nc(N3C[C@@H](O)[C@@H]3C)nc3c2CCC3(F)F)c1` [Example 745, N-[(1S)-1-[3-[7,7-difluoro-2-[(2S,3R)-3-hydroxy-2-methyl-azetidin-1-yl]-5,6-dihydrocyclopenta[d]pyrimidin-4-yl]phenyl]ethyl]methanesulfonamide] had an IC50 of 0.0254 µM. The EC50 in experiment [3] was found to be 0.162 µM.

On to `C[C@H]1CCN1c1nc(-c2cc(F)c3c(c2)OCCNC3=O)c2c(n1)C(F)(F)CC2` [Example 747, 8-[7,7-difluoro-2-[(2S)-2-methylazetidin-1-yl]-5,6-dihydrocyclopenta[d]pyrimidin-4-yl]-6-fluoro-3,4-dihydro-2H-1,4-benzoxazepin-5-one], for which the IC50 in experiment [2] came out at 0.0061 µM. A half-maximal effect in experiment [3] (EC50) was put at 0.0151 µM.

As for `C[C@@H](NS(C)(=O)=O)c1ccc(-c2nc(N3CC[C@@H]3C)nc3c2CCC3(F)F)cc1` [Example 748, N-[(1R)-1-[4-[7,7-difluoro-2-[(2S)-2-methylazetidin-1-yl]-5,6-dihydrocyclopenta[d]pyrimidin-4-yl]phenyl]ethyl]methanesulfonamide], in experiment [2], the midpoint of inhibition, the IC50, lay at 0.0232 µM. In experiment [3], this compound had an EC50 of 0.0859 µM.

Turning to `C[C@@H](NS(C)(=O)=O)c1cccc(-c2nc(N3CC[C@@H]3C)nc3c2CCC3(F)F)c1` [Example 749, N-[(1R)-1-[3-[7,7-difluoro-2-[(2S)-2-methylazetidin-1-yl]-5,6-dihydrocyclopenta[d]pyrimidin-4-yl]phenyl]ethyl]methanesulfonamide], in experiment [2], the 50% inhibitory concentration (IC50) came to 0.0188 µM. Also, the EC50 in experiment [3] worked out at 0.0697 µM.

As to `C[C@H](NS(C)(=O)=O)c1ccc(-c2nc(N3CC[C@@H]3C)nc3c2CCC3(F)F)cc1` [Example 750, N-[(1S)-1-[4-[7,7-difluoro-2-[(2S)-2-methylazetidin-1-yl]-5,6-dihydrocyclopenta[d]pyrimidin-4-yl]phenyl]ethyl]methanesulfonamide], the IC50 in experiment [2] was 0.009 µM. Moreover, the response in experiment [3] was half-maximal at 0.0148 µM (EC50).

As for `C[C@H](NS(C)(=O)=O)c1cccc(-c2nc(N3CC[C@@H]3C)nc3c2CCC3(F)F)c1` [Example 751, N-[(1S)-1-[3-[7,7-difluoro-2-[(2S)-2-methylazetidin-1-yl]-5,6-dihydrocyclopenta[d]pyrimidin-4-yl]phenyl]ethyl]methanesulfonamide], the IC50 in experiment [2] turned out to be 0.0108 µM. In experiment [3], the EC50 was 0.0179 µM.

Consider `C[C@H]1CCN1c1nc2c(c(-c3ccc(C(N)=O)cn3)n1)CCC2` [Example 752, 6-[2-[(2S)-2-methylazetidin-1-yl]-6,7-dihydro-5H-cyclopenta[d]pyrimidin-4-yl]pyridine-3-carboxamide], for which it took 0.0792 µM to reach half-maximal inhibition in experiment [2] (IC50). The compound also had an EC50 in experiment [3] of 0.223 µM.

For `C[C@H]1CCN1c1nc2c(c(-c3ccc4c(c3)NCCNC4=O)n1)CCC2` [Example 753, 8-[2-[(2S)-2-methylazetidin-1-yl]-6,7-dihydro-5H-cyclopenta[d]pyrimidin-4-yl]-1,2,3,4-tetrahydro-1,4-benzodiazepin-5-one], the IC50 in experiment [2] was determined as 0.0107 µM. Besides, in experiment [3], the EC50 was determined as 0.0331 µM.

In the case of `C[C@H]1CCN1c1nc(-c2ccc3c(c2)OCCC3NS(C)(=O)=O)c2c(n1)C(F)(F)CC2` (stereo partly drawn) [Example 759, N-[7-[7,7-difluoro-2-[(2S)-2-methylazetidin-1-yl]-5,6-dihydrocyclopenta[d]pyrimidin-4-yl]chroman-4-yl]methanesulfonamide], the concentration for half-maximal inhibition (IC50) in experiment [2] was 0.0023 µM. The concentration giving a half-maximal response (EC50) in experiment [3] turned out to be 0.0069 µM.

On to “(1S)-1-[4-[7,7-difluoro-2-[(2S)-2-methylazetidin-1-yl]-5,6-dihydrocyclopenta[d]pyrimidin-4-yl]phenyl]-2,2-difluoro-ethanamine [Example 652]”, for which, in experiment [2], the IC50 was determined as 0.0236 µM. Moreover, in experiment [3] (read-out: NRK CTG EC50, NRK-52E cells, Cell-Titer Glo, 25 mM fructose), the EC50 is 0.193 µM.

(Values after patent US12410160B2 (Gilead Sciences, Inc., priority 2021, dated 2025).)
